Data: patent US20070135383A1, “Phospholipase inhibitors, including multi-valent phospholipase inhibitors, and use thereof, including as lumen-localized phospholipase inhibitors” (priority 2005, published 2007)
Read-outs that look alike come from different tables or passages of the source.

Assays:
Test in all cases: Fluorimetric PPyrPM assay for group 1B PLA2 inhibition (Example 12)
Format in all cases: biochemical
[1] = biological target: T1, human group 1B PLA2 (hps PLA2) (Homo sapiens, UniProt P04054); details: for inhibition at 15 µM: read-out: ILYPSA % inhibition at 15 μM hps PLA2
T1 construct: made in house; host or cells: E. coli
From the text: (§1) In this example, a fluorimetric assay procedure was used to evaluate the indole and indole-related compounds of the invention as inhibitors of group 1B phospholipase A2 (PLA2) from human, mouse and porcine. A description of this assay is found in articles: Leslie, C C and Gelb, M H (2004) Methods in Molecular Biology “Assaying phospholipase A2 activity”, 284:229-242; Singer, A G, et al. (2002) Journal of Biological Chemistry “Interfacial kinetic and binding properties of the complete set of human and mouse groups I, II, V, X, and XII secreted phospholipases A2”, 277:48535-48549, which are incorporated herein as references.
(§2) In general, this assay used a phosphatidylmethanol substrate with a pyrene fluorophore on the terminal end of the sn-2 fatty acyl chain. Without being bound by theory, close proximity of the pyrenes from neighboring phospholipids in a phospholipid vesicle caused the spectral properties to change relative to that of monomeric pyrene. Bovine serum albumin was present in the aqueous phase and captured the pyrene fatty acid when it is liberated from the glycerol backbone owing to the PLA2-catalyzed reaction. However, a potent inhibitor can inhibit the liberation of pyrene fatty acid from the glycerol backbone. […] The effect of a given inhibitor and inhibitor concentration on human, mouse and porcine phospholipase was determined.
(§3) Recombinant human and mouse group 1B PLA2 were cloned and expressed in E. coli as insoluble inclusion bodies. The inclusion bodies were isolated and purified by sonicating cell pellet in lysis buffer (50 mM Tris-HCl pH 7.0, 250 mM NaCl, 0.5% Triton 100), centrifugation at 12,000×g, and washing three times in washing buffer (20 mM Tris-HCl pH 7.0, 250 mM NaCl, 0.5% Triton 100). Then the inclusion bodies were dissolved in dissolving buffer (50 mM Tris-HCl pH 7.0, 250 mM NaCl, 6 M Guanidine-HCl, 1 mM DTT) and dialyzed four times against 10 volumes of refolding buffer (20 mM Tris-HCl pH 7.0, 250 mM NaCl, 0.5M Guanidine-HCl, 5% (w/w) Glycerol, 2 mM reduced glutathione and 0.4 mM oxidized glutathione) at 4° C. The correctly refolded proteins were concentrated using Amicon Stirred cell under nitrogen pressure (<70 psi) and dialyzed against 10 volumes of 50 mM Tris-HCl pH 7.0, 250 mM NaCl and 5% (w/w) glycerol. Human and mouse group 1B PLA2 were further purified by High S ion exchange and gel filtration columns.
(§4) The following reagents and equipments were obtained from commercial vendors: • 1. Porcine group 1B phospholipase A2 • 2. 1-hexadecanoyl-2-(1-pyrenedecanoyl)-sn-glycero-3-phosphomethanol (PPyrPM) • 3. Bovine serum albumin (BSA, fatty acid free) • 4. 2-Amino-2-(hydroxymethyl)-1,3-propanediol, hydrochloride (Tris-HCl) • 5. Calcium chloride • 6. Potassium chloride • 7. Solvents: DMSO, toluene, isopropanol, ethanol • 8. Molecular Devices SPECTRAmax microplate spectrofluorometer • 9. Costar 96 well black wall/clear bottom plate
(§5) The following reagents were prepared: • 10. PPyrPM stock solution (1 mg/ml) in toluene:isopropanol (1:1) • 11. ILY104 inhibitor stock solution (10 mM) in DMSO • 12. 3% (w/v) bovine serum albumin (BSA) • 13. Stock buffer: 50 mM Tris-HCl, pH 8.0, 50 mM KCl and 1 mM CaCl2
(§6) The following procedure was performed to evaluate the inhibitory potency of the evaluated compounds. • 14. An assay buffer was prepared by adding 3 ml 3% BSA to 47 ml stock buffer. • 15. Solution A was prepared by adding serially diluted inhibitors to the assay buffer. Inhibitors were three-fold diluted in stock buffer in a series of 8 from 15 uM. • 16. Solution B was prepared by adding human, mouse or porcine PLA2 to the assay buffer. This solution was prepared immediately before use to minimize enzyme activity loss. • 17. Solution C was prepared by adding 30 ul PPyrPM stock solution to 90 ul ethanol, and then all 120 ul of PPyrPM solution was transferred drop-wise over approximately 1 min to the continuously stirring 8.82 ml assay buffer to form a final concentration of 4.2 uM PPyrPM vesicle solution. • 18. […]

[2] = biological target: T2, mouse group 1B PLA2 (mps PLA2) (Mus musculus, UniProt Q9Z0Y2); details: for inhibition at 15 µM: read-out: ILYPSA % inhibition at 15 μM mps PLA2
T2 construct: made in house; host or cells: E. coli
From the text: as §1, §2, §3, §4, §5, §6

[3] = biological target: T3, porcine group 1B PLA2 (pps PLA2) (Sus scrofa, UniProt P00592); details: porcine pancreas secreted PLA2; read-out: ILYPSA IC50 pps PLA2
T3 construct: purchased
From the text: as §1, §2, §4, §5
The following procedure was performed to evaluate the inhibitory potency of the evaluated compounds. • 14. An assay buffer was prepared by adding 3 ml 3% BSA to 47 ml stock buffer. • 15. Solution A was prepared by adding serially diluted inhibitors to the assay buffer. Inhibitors were three-fold diluted in stock buffer in a series of 8 from 15 uM. • 16. Solution B was prepared by adding human, mouse or porcine PLA2 to the assay buffer. This solution was prepared immediately before use to minimize enzyme activity loss. • 17. Solution C was prepared by adding 30 ul PPyrPM stock solution to 90 ul ethanol, and then all 120 ul of PPyrPM solution was transferred drop-wise over approximately 1 min to the continuously stirring 8.82 ml assay buffer to form a final concentration of 4.2 uM PPyrPM vesicle solution. • 18. The SPECTRAmax microplate spectrofluorometer was set at 37° C. • 19. 100 ul of solution A was added to each inhibition assay well of a costar 96 well black wall/clear bottom plate • 20. 100 ul of solution B was added to each inhibition assay well of a costar 96 well black wall/clear bottom plate. • 21. 100 ul of solution C was added to each inhibition assay well of a costar 96 well black wall/clear bottom plate. • 22. The plate was incubated inside the spectrofluorometer chamber for 3 min. • 23. The fluorescence was read using an excitation of 342 nm and an emission of 395 nm.
Evaluated compounds were tested in duplicate and their values were averaged to plot the inhibition curve and calculate the IC50. Compared to uninhibited controls, lower fluorescent signal at an emission of 395 nm in test reactions evidenced inhibition of PLA2. […] Compounds initially found to be active were repeated to confirm their inhibitory activity. […]

[4] = human pancreas secreted PLA2, read-out: ILYPSA IC50 hps PLA2
[5] = mouse pancreas secreted PLA2, read-out: ILYPSA IC50 mps PLA2

T1 sequence (P04054 23-148): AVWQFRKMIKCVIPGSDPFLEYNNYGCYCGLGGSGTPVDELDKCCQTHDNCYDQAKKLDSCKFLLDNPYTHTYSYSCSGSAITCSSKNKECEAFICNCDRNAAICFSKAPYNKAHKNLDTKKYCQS
T3 sequence (P00592 23-146): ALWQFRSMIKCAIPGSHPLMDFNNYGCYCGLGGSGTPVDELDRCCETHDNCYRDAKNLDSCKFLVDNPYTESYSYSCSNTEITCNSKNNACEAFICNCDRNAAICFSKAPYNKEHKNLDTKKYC
T2 sequence (Q9Z0Y2 23-146): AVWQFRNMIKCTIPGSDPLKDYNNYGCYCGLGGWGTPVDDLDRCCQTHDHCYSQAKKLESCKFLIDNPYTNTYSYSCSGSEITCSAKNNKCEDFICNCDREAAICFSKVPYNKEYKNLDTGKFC

Work on Cc1c(C(=O)C(N)=O)c2c(OCC(=O)NS(C)(=O)=O)cccc2n1Cc1ccccc1 [ILY-IV-21, 1-Benzyl-2-methyl-4-methanesulfonamidoylmethyloxy-1H-indol-3-glyoxylamide] yielded an IC50 [1, 4] of 1160 nM, an IC50 [2, 5] of 320 nM and an IC50 [3] of under 20 nM.

Cc1c(C(=O)C(N)=O)c2c(OCC(=O)O)cccc2n1Cc1ccc2ccccc2c1 [ILY-V-9] was tested, and the IC50 [1, 4] was 2110 nM, the IC50 [2, 5] was 710 nM and the IC50 [3] was 60 nM.

For Cc1c(C(=O)C(N)=O)c2c(OC(C(=O)O)C(C)C)cccc2n1Cc1ccccc1 (stereo not drawn) [ILY-IV-22, 2-(3-Aminooxalyl-1-benzyl-2-methyl-1H-indol-4-yloxy)-3-methyl-butyric acid], the IC50 [1, 4] was 70 nM, the IC50 [2, 5] was under 20 nM and the IC50 [3] was under 20 nM.

Cc1c(C(=O)C(N)=O)c2c(OC(F)C(N)=O)cccc2n1Cc1ccccc1 (stereo not drawn) [ILY-IV-28, 2-(3-Aminooxalyl-1-benzyl-2-methyl-1H-indol-4-yloxy)-2-fluoro-acetamide] gave an IC50 [1, 4] of 2600 nM, an IC50 [2, 5] of 1440 nM and an IC50 [3] of 160 nM.

CCc1c(C(=O)C(N)=O)c2c(OCC(=O)O)nccc2n1Cc1ccccc1 [ILY-II-9, 2-(3-(2-amino-2-oxoacetyl)-1-benzyl-2-ethyl-1H-pyrrolo[3,2-c]pyridin-4-yloxy)acetic acid] was tested, and the IC50 [1, 4] was 1460 nM, the IC50 [2, 5] was 350 nM and the IC50 [3] was 30 nM.

For Cc1c(C(=O)C(N)=O)c2c(OCC(=O)O)nccc2n1Cc1ccccc1-c1ccccc1 [ILY-II-4, (3-Aminooxalyl-1-biphenyl-2-ylmethyl-2-methyl-1H-pyrrolo[3,2-c]pyridin-4-yloxy)-acetic acid], the IC50 [1] was 80 nM, the IC50 [2] was 70 nM and the IC50 [3] was under 20 nM.

Cc1c(C(=O)C(N)=O)c2c(OC(CC(C)C)C(=O)O)cccc2n1Cc1ccccc1 (stereo not drawn) [ILY-IV-47, 2-(3-Aminooxalyl-1-benzyl-2-methyl-1H-indol-4-yloxy)-4-methyl-pentanoic acid] was tested, and the IC50 [1, 4] was 2940 nM, the IC50 [2, 5] was 2430 nM and the IC50 [3] was 20 nM.

Cc1c(C(=O)C(N)=O)c2c(OCC(=O)O)c(Br)ccc2n1Cc1ccccc1 [ILY-IV-3, (3-Aminooxalyl-1-benzyl-5-bromo-2-methyl-1H-indol-4-yloxy)-acetic acid] gave an inhibition at 15 µM ([1]; human pancreas secreted PLA2) of 35.8%, an inhibition at 15 µM ([2]; mouse pancreas secreted PLA2) of 39.8% and an IC50 [3] of 5870 nM.

Compound Cc1c(C(=O)C(N)=O)c2c(OCC(=O)O)cccc2n1CCCCCCCCCCCCSSCCCCCCCCCCCCn1c(C)c(C(=O)C(N)=O)c2c(OCC(=O)O)cccc21 [ILY-V-28, 2,2′-(1,1′-(12,12′-disulfanediylbis(dodecane-12,1-diyl))bis(3-(2-amino-2-oxoacetyl)-2-methyl-1H-indole-4,1-diyl))bis(oxy)diacetic acid] has an IC50 [1, 4] of 600 nM, an IC50 [2, 5] of 1000 nM and an IC50 [3] of 730 nM.

Compound COc1cccc(Cn2c(C)c(C(=O)C(N)=O)c3c(OCC(=O)O)cccc32)c1 [ILY-V-8] has an IC50 [1, 4] of 3250 nM, an IC50 [2, 5] of 970 nM and an IC50 [3] of 40 nM.

Compound Cc1c(C(=O)C(N)=O)c2c(OCC(=O)O)cccc2n1CCCCCCCCCCCCOc1ccccc1OCCCCCCCCCCCCn1c(C)c(C(=O)C(N)=O)c2c(OCC(=O)O)cccc21 [ILY-V-27, [3-Aminooxalyl-1-(12-{2-[12-(3-aminooxalyl-4-carboxymethoxy-2-methyl-indol-1-yl)-dodecyloxy]-phenoxy}-dodecyl)-2-methyl-1H-indol-4-yloxy]-acetic acid] has an IC50 [1, 4] of 150 nM, an IC50 [2, 5] of 200 nM and an IC50 [3] of 150 nM.

Compound Cc1c(C(=O)C(N)=O)c2c(OC(C(N)=O)C(C)C)cccc2n1Cc1ccccc1 (stereo not drawn) [ILY-IV-45, 2-(3-(2-amino-2-oxoacetyl)-1-benzyl-2-methyl-1H-indol-4-yloxy)-3-methylbutanamide] has an inhibition at 15 µM ([1]; human pancreas secreted PLA2) of 74%, an inhibition at 15 µM ([2]; mouse pancreas secreted PLA2) of 65.5% and an IC50 [3] of 1030 nM.

Work on Cc1c(C(=O)C(N)=O)c2c(OCC(=O)O)cccc2n1CCCCCCCCCCCCOc1ccc(-c2ccc(OCCCCCCCCCCCCn3c(C)c(C(=O)C(N)=O)c4c(OCC(=O)O)cccc43)cc2)cc1 [ILY-V-36, [3-Aminooxalyl-1-(12-{4′-[12-(3-aminooxalyl-4-carboxymethoxy-2-methyl-indol-1-yl)-dodecyloxy]-biphenyl-4-yloxy}-dodecyl)-2-methyl-1H-indol-4-yloxy]-acetic acid] yielded an IC50 [1, 4] of 1250 nM, an IC50 [2, 5] of 920 nM and an IC50 [3] of 440 nM.

Cc1c(C(=O)C(N)=O)c2c(OCC(=O)O)ccc(NS(C)(=O)=O)c2n1Cc1ccccc1 [ILY-IV-37] showed an IC50 [1, 4] of 3480 nM, an IC50 [2, 5] of 1020 nM and an IC50 [3] of 280 nM.

Cc1c(C(=O)C(N)=O)c2c(OC(F)C(=O)O)cccc2n1Cc1ccccc1 (stereo not drawn) [ILY-IV-24, (3-Aminooxalyl-1-benzyl-2-methyl-1H-indol-4-yloxy)-fluoro-acetic acid] was tested, and the inhibition at 15 µM ([1]; human pancreas secreted PLA2) was 52.4%, the inhibition at 15 µM ([2]; mouse pancreas secreted PLA2) was 63.7% and the IC50 [3] was 1420 nM.

For Cc1c(C(=O)C(N)=O)c2c(OCC(=O)O)ccnc2n1Cc1ccccc1 [ILY-VII-1, 2-(1-Benzyl-4-yloxyacetic acid-2-methyl-1H-pyrrolo[2,3-b]pyridin-3-yl)-2-oxoacetamide], the IC50 [1, 4] was 13700 nM, the IC50 [2, 5] was 2140 nM and the IC50 [3] was 60 nM.

Cc1c(C(=O)C(N)=O)c2c(OCC(=O)O)cccc2n1CCCCCCCCSCCCCSCCCCCCCCn1c(C)c(C(=O)C(N)=O)c2c(OCC(=O)O)cccc21 [ILY-V-23, 2,2′-(1,1′-(8,8′-(butane-1,4-diylbis(sulfanediyl))bis(octane-8,1-diyl))bis(3-(2-amino-2-oxoacetyl)-2-methyl-1H-indole-4,1-diyl))bis(oxy)diacetic acid] was tested, and the IC50 [1, 4] was 2160 nM, the IC50 [2, 5] was 550 nM and the IC50 [3] was 1120 nM.

In the case of C=CCn1c(C)c(C(=O)C(N)=O)c2c(OCC(=O)O)cccc21 [ILY-V-10], the inhibition at 15 µM ([1]; human pancreas secreted PLA2) is reported as 64%, the IC50 [2, 5] is reported as 3210 nM and the IC50 [3] is reported as 460 nM.
